The source of these data is ChEMBL document CHEMBL1201862, “PubChem BioAssay data set” (2004).

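Protocol summary: plate cells (96-well), add compound at 5 concentrations, incubate 48 h, interpolate endpoints linearly. GI50 = concentration required for 50% inhibition of growth.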 Calls of active or inactive are those of the source. No stated cut-off is given here; in the data, active = GI50 up to about 1.1 µM and inactive = higher.

Assay in all cases: growth of human tumour cells (NCI), 48 h
For assay [1], the system named is T47D.
The subject of assay [2] is SK-MEL-2.
Assay [3] has as its system KM12.
Assay [4] concerns LOX IMVI.
Assay [5] concerns A549.
In assay [6] the test system is HOP-92.
Assay [7] deals with Hs-578T.
Assay [8] concerns PC-3.
For assay [9], the system named is 786-0.
The test system of assay [10] is RXF 393.
Assay [11] has as its system SNB-19.
Assay [12] deals with NCI-H23.
The test system of assay [13] is SW-620.
Assay [14] relates to OVCAR-8.
The test system of assay [15] is MDA-N.
Assay [16] concerns TK-10.
The subject of assay [17] is ACHN.
Assay [18] deals with SF-295.
For assay [19], the system named is HCC 2998.
In assay [20] the test system is SR.

On to `N#CC12COC3(CCCCC3C1(C#N)C#N)OC2=N` (stereo unspecified), for which the GI50 is 11 µM (inactive) in assay [1]; 12.7 µM (inactive) in [2]; > 10 µM (inactive) in [3]; 12.9 µM (inactive) in [4]; 24.7 µM (inactive) in [5]; 5.06 µM (inactive) in assay [6]. The GI50 was 17.1 µM (inactive) in [7]; 13.8 µM (inactive) in assay [8]; 19.2 µM (inactive) in assay [9]; 13.1 µM (inactive) in assay [10]; 17.8 µM (inactive) in assay [11]; 16.7 µM (inactive) in assay [12]. The GI50 in assay [13] was 10.3 µM (inactive); in [14] it was > 10 µM (inactive); in [15], 12.9 µM (inactive); in assay [16], 16.2 µM (inactive); in assay [17], 15.1 µM (inactive); in assay [18], 19.5 µM (inactive).
On to `Nc1nc(N)c2nn(-c3ccc(C(=O)O)cc3)nc2n1`, for which the GI50 in [1], in assay [2], in assay [3], in [4], in assay [5] and in [6] was > 100 µM (inactive) each time. Moreover, the GI50 in assay [7], in [8], in [9], in [10], in [19] and in assay [11] was > 100 µM (inactive) in each case. Moreover, the GI50 in assay [12], in [13], in assay [14], in assay [15], in [16] and in assay [17] was > 100 µM (inactive) in each case. In assay [18], the GI50 is > 100 µM (inactive).
Regarding `CC(C)(C)OC(=O)N1CC(O)O[C@H](c2ccccc2)[C@@H]1c1ccccc1` (stereo partly specified), the GI50 in assay [1] is 31.1 µM (inactive); in [2], 14.5 µM (inactive); in assay [3], 19.2 µM (inactive); in [4], 35.7 µM (inactive); in [5], 18.7 µM (inactive); in [6], 16.7 µM (inactive). In addition, the GI50 in assay [20] was 16.7 µM (inactive); in assay [7], 32.4 µM (inactive); in [8] it was 14.7 µM (inactive); in assay [9], 27.9 µM (inactive); in assay [10], 15.1 µM (inactive); in assay [11] it was 15.7 µM (inactive). Moreover, the GI50 in assay [12] is 15.9 µM (inactive); in [13], 16.6 µM (inactive); in assay [14], 29.7 µM (inactive); in assay [15], 28.2 µM (inactive); in assay [16], 17.8 µM (inactive); in [18], 16.4 µM (inactive).
On to `CC(C)(O)C1CC(=O)C(C)(C2C(O)CC3(C)C4CC=C5C(CCC(O)C5(C)C)C4(C)C(=O)CC23C)O1` (stereo unspecified), for which the GI50 in assay [1] was > 100 µM (inactive); in assay [2], > 100 µM (inactive); in assay [3], > 100 µM (inactive); in assay [4], > 100 µM (inactive); in [5], > 100 µM (inactive); in [6], 91.8 µM (inactive). For the same molecule, the GI50 in assay [7], in assay [8], in [9], in assay [10], in [19] and in [11] was > 100 µM (inactive) each time. In addition, the GI50 in assay [12], in assay [13], in assay [14], in assay [15], in assay [16] and in assay [17] was > 100 µM (inactive) each time. The GI50 in assay [18] was > 100 µM (inactive).
For the molecule `O=c1oc2ccccc2c2c(=O)c3ccc(OC/C(=N/O)c4ccc(Cl)cc4)cc3oc12`, the GI50 was 29.4 µM (inactive) in assay [1]; 4.85 µM (inactive) in assay [2]; 3.11 µM (inactive) in assay [3]; 11.8 µM (inactive) in assay [4]; 13.2 µM (inactive) in assay [5]; 11 µM (inactive) in assay [6]. The GI50 was 2.88 µM (inactive) in assay [20]; 8.3 µM (inactive) in [7]; 7.48 µM (inactive) in [8]; 11.4 µM (inactive) in assay [9]; 2.16 µM (inactive) in [10]; 14.9 µM (inactive) in assay [11]. The GI50 in [12] is 18.4 µM (inactive); in [13], 12.8 µM (inactive); in [14], 24 µM (inactive); in assay [15], 3.57 µM (inactive); in [17] it was 5.85 µM (inactive); in assay [18], 1.89 µM (inactive).
`O=[N+]([O-])c1cccc2nc3ccccc3c(NCCCCNc3c4ccccc4nc4cccc([N+](=O)[O-])c34)c12`: the GI50 in assay [1] was 0.0491 µM (active); in assay [2], 0.141 µM (active); in assay [3], 0.0401 µM (active); in assay [4], 0.0621 µM (active); in [5], 0.0347 µM (active); in assay [6], 0.0233 µM (active). The GI50 in assay [7] was 0.191 µM (active); in [8] it was 0.0719 µM (active); in [9], 0.0164 µM (active); in assay [10], 0.0188 µM (active); in assay [19] it was 0.0254 µM (active); in assay [11], 0.0302 µM (active). The GI50 is 0.0225 µM (active) in assay [12]; < 0.0122 µM (active) in assay [13]; < 0.01 µM (active) in assay [14]; 0.0536 µM (active) in [15]; 0.0213 µM (active) in assay [16]; 0.017 µM (active) in assay [17]. Further, the GI50 in [18] was 0.0927 µM (active).
For the molecule `CC(=O)C1=C(C)N2C(=NC3=C(CCc4ccccc43)C2c2cccc(Br)c2)S1` (stereo unspecified), the GI50 in assay [1] is > 100 µM (inactive); in [2] it was > 100 µM (inactive); in assay [3] it was 49.7 µM (inactive); in [4], 76.4 µM (inactive); in assay [5] it was > 100 µM (inactive); in [6], > 100 µM (inactive). Also, the GI50 in assay [7] is 67.1 µM (inactive); in assay [8], > 100 µM (inactive); in assay [9], > 100 µM (inactive); in [10], > 100 µM (inactive); in assay [19], 72.9 µM (inactive); in assay [11], > 100 µM (inactive). Further, the GI50 was 99.1 µM (inactive) in [12]; > 100 µM (inactive) in assay [13]; > 100 µM (inactive) in [14]; > 100 µM (inactive) in [15]; > 100 µM (inactive) in assay [17]; > 100 µM (inactive) in [18].
As to `C=C(C)CC1=C(C(=S)NCCO[Si](C)(C)C(C)(C)C)C(OCC)(OCC)C1=O`, the GI50 in [1] was 11.4 µM (inactive); in assay [2], 17 µM (inactive); in [3] it was 16.7 µM (inactive); in assay [4] it was 15.8 µM (inactive); in [5], 15.2 µM (inactive); in [6], 29.8 µM (inactive). In addition, the GI50 in assay [7] was 24.8 µM (inactive); in assay [8], 14.8 µM (inactive); in [9] it was 16.6 µM (inactive); in [10], 13.6 µM (inactive); in assay [11], 17.7 µM (inactive); in [12] it was 16.9 µM (inactive). In addition, the GI50 was 18.4 µM (inactive) in assay [13]; 40.6 µM (inactive) in assay [14]; 19.3 µM (inactive) in [15]; 16.1 µM (inactive) in [16]; 18 µM (inactive) in assay [17]; 17.6 µM (inactive) in assay [18].
Regarding `CC(=O)OCC1OC(Oc2cc(C)c(O)cc2C/C=C(\C)CC/C=C(\C)CC(=O)CC(C)C)C(O)C(OC(C)=O)C1OC(C)=O` (stereo unspecified), the GI50 is 9.42 µM (inactive) in assay [1]; 10.2 µM (inactive) in assay [2]; 12.5 µM (inactive) in assay [3]; 13 µM (inactive) in [4]; 7.8 µM (inactive) in [5]; 45.8 µM (inactive) in [6]. Moreover, the GI50 in [7] was 11.9 µM (inactive); in assay [8] it was 14.2 µM (inactive); in assay [9], 21 µM (inactive); in assay [10], 9.77 µM (inactive); in assay [19], 10.7 µM (inactive); in [11], 7.93 µM (inactive). Also, the GI50 in [12] was 6.95 µM (inactive); in assay [13], 11 µM (inactive); in [14], 16.9 µM (inactive); in assay [15] it was 18 µM (inactive); in assay [16] it was 16.2 µM (inactive); in assay [17], 14.2 µM (inactive). The GI50 in assay [18] is 15.1 µM (inactive).
Turning to `CCCCCCCCCCCCOP(=O)(O)OP(=O)(O)OCC1OC(n2cc(C)c(=O)[nH]c2=O)CC1O` (stereo unspecified), the GI50 in assay [1], in assay [2], in [3], in assay [4], in assay [5] and in assay [6] was > 100 µM (inactive) throughout. For the same molecule, the GI50 in assay [7], in assay [8], in assay [9], in assay [10], in assay [19] and in assay [11] was > 100 µM (inactive) each time. Besides, the GI50 in assay [12], in assay [13], in [14], in [15], in [16] and in assay [17] was > 100 µM (inactive) throughout. In assay [18], the GI50 was > 100 µM (inactive).
For the molecule `CC1(C)SC2C(NC(=O)C(C(=O)O)c3ccccc3)C(=O)N2C1C(=O)O` (stereo unspecified), the GI50 in [1], in [2], in [3], in assay [4], in assay [7] and in assay [8] was > 100 µM (inactive) each time. For the same molecule, the GI50 in assay [9], in [10], in [11], in assay [12], in assay [13] and in [14] was > 100 µM (inactive) in each case. Besides, the GI50 in assay [15], in assay [16], in [17] and in assay [18] was > 100 µM (inactive) throughout.
